Measurements: PubChem BioAssay (NCI)
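Protocol summary: plate cells (96-well), add compound at 5 concentrations, incubate 48 h, interpolate endpoints linearly. GI50: concentration for 50% inhibition of growth. TGI is the concentration that stops growth completely.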

Assays:
Experiment in all cases: DTP human tumour cell line panel, 48 h
[1] = system: HCC-2998 colon
[2] = system: SN12C renal
[3] = system: COLO 205 colon
[4] = system: SF-295 CNS
[5] = system: HCT-15 colon
[6] = system: K-562 leukemia
[7] = system: SK-OV-3 ovarian
[8] = system: NCI/ADR-RES ovarian
[9] = system: T-47D breast
[10] = system: MDA-MB-231 breast

SMILES | TGI [1] [µM] | TGI [2] [µM] | TGI [3] [µM] | TGI [4] [µM] | TGI [5] [µM] | TGI [6] [µM] | TGI [7] [µM] | GI50 [8] [µM] | TGI [8] [µM] | GI50 [9] [µM] | TGI [9] [µM] | GI50 [2] [µM] | GI50 [3] [µM] | GI50 [4] [µM] | GI50 [10] [µM] | TGI [10] [µM] | GI50 [5] [µM] | GI50 [6] [µM] | GI50 [1] [µM] | GI50 [7] [µM]
O=c1c2cc(Br)ccc2[nH]c(=S)n1-c1ccc(Br)cc1 | > 100 | > 100 | > 100 | > 100 | > 100 | > 100 |  |  |  |  |  |  |  |  |  |  |  |  |  | 
Cn1c(=O)nc2n(-c3ccc(F)cc3)c3ccccc3nc-2c1=O | 49.8 | 56.6 | 22.1 | 40.8 | 37.4 | 45.8 | > 100 |  |  |  |  |  |  |  |  |  |  |  |  | 
O=C(CCc1nnc2s/c(=C\c3ccc4c(c3)OCO4)c(=O)n12)Nc1cc(Cl)ccc1Cl | > 100 | > 100 | > 100 | > 100 | > 56.6 | > 100 | > 100 |  |  |  |  |  |  |  |  |  |  |  |  | 
O=C(CCCCC(=O)N/N=C\c1ccccc1Cl)N/N=C\c1ccccc1Cl |  | > 100 | > 100 | 44.4 | > 100 | > 100 |  | 1.2 | > 100 | 3.36 | > 100 | 7.44 | 2.91 | 0.539 | 12.5 | 55.7 | 3.08 | 3.02 |  | 
Cc1cc2cc(Cl)ccc2nc1C(=O)c1ccccc1 | > 100 | > 100 | > 100 | > 100 | > 100 | > 100 |  |  |  |  |  |  |  |  |  |  |  |  |  | 
O=C1C(c2ccc([N+](=O)[O-])cc2)=[N+]([O-])c2ccccc21 |  | 93.5 | 30.1 | > 100 | 54.4 | > 100 | > 100 |  |  |  |  |  |  |  |  |  |  |  |  | 
COc1cc(C2c3cc4c(cc3[C@H](NC(=O)c3cccs3)C3COC(=O)[C@H]23)OCO4)cc(OC)c1OC (some centres undefined) | 13.2 | 19.5 | 0.0308 |  |  | > 37.8 | > 100 |  | 0.459 |  | > 100 |  |  |  |  | 0.0128 |  |  |  | 
CN(C)CCCNC(=O)c1cc(NC(=O)CCNC(=O)c2ccc3c(c2)C(=O)c2ccccc2C3=O)cn1C | > 100 | > 100 | > 100 | > 100 |  | > 100 | > 100 | > 100 | > 100 | 32.5 | 75.3 | > 100 | 33.9 | > 100 | > 100 | > 100 |  | > 100 | 52.7 | > 100
COc1ccc(C(=O)/C(=N/Nc2ccccc2)c2ccc(OC)cc2)cc1 | > 100 | > 100 | > 100 | > 100 | > 100 | > 100 | > 100 |  |  |  |  |  |  |  |  |  |  |  |  | 
[N-]=[N+]=Nc1ccccc1-[n+]1noc([O-])c1Br |  | > 100 | > 100 | > 100 | > 100 | > 100 | > 100 |  |  |  |  |  |  |  |  |  |  |  |  | 
COCC1C(=O)c2cc3c(cc2C12C=CC1(C=C2)OCCO1)OCO3 (centres undefined) |  | 22.9 | 38 | 27.9 | 2.96 | 11.2 | 29.7 |  |  |  |  |  |  |  |  |  |  |  |  | 
CN(C)c1ccccc1CC(c1c[nH]c2ccccc12)c1c[nH]c2ccccc12 | 22.6 | 12.7 | 11.3 | 24.4 | 28.8 | 32.9 | 33.7 |  |  |  |  |  |  |  |  |  |  |  |  | 
N#Cc1ccc(/C=N\N2C(=O)c3ccccc3C2=O)cc1 | > 100 | > 100 |  | > 100 | > 100 | > 100 |  |  |  |  |  |  |  |  |  |  |  |  |  | 
O=C1Nc2cc(Cl)ccc2Oc2cc(Oc3ccccc3)ccc21 | > 100 | 71.1 | 19.9 | 18.5 | > 100 |  | 17.4 | 2.53 | 9.77 | 4.79 | 36.8 | 5.52 | 5.3 | 3.64 | 5.5 | 51.4 | 3.84 |  | 8.8 | 4.66
COc1ccc2nc3cc(Cl)ccc3c(NCCC(=O)OCC(O)C(O)C(O[C@H](C)C(=O)NC(C)C(=O)NC(CCC(N)=O)C(=O)OCc3ccccc3)C(C=O)NC(C)=O)c2c1 (some centres undefined) | 33.6 | 31.4 | 32.6 | 34.3 | 52.4 | 68 | 33 |  |  |  |  |  |  |  |  |  |  |  |  | 
COC(=O)CCC(=O)CC(=O)C(=O)Nc1ccc(F)cc1 | > 100 | > 100 | > 100 |  | > 100 | > 100 | > 100 |  |  |  |  |  |  |  |  |  |  |  |  | 
O=C(CCCCCCC(=O)N/N=C/c1ccc(N(c2ccccc2)c2ccccc2)cc1)NO | 11.2 | 13.5 | 4.63 | 4.47 | 12 |  | 5.29 | 3.07 | 20.5 | 0.309 | 2.41 | 2.94 | 2.02 | 1.77 | 3.37 | 12.2 | 2.69 |  | 2.87 | 1.6
Nc1nc(=O)n(C2CC(O)C(O)C(CO)O2)cc1F (centres undefined) | > 100 | > 100 | > 100 | > 100 | > 100 | > 100 |  |  |  |  |  |  |  |  |  |  |  |  |  | 
O=c1oc2c3ccc4ccccc4c3n(CCN3CCOCC3)c2c2ccccc12 | > 100 |  | > 100 | > 100 |  |  | > 100 |  |  |  |  |  |  |  |  |  |  |  |  | 
CC(C)(C)C(=O)OCOP(=O)(OCOC(=O)C(C)(C)C)C1CCCN(OC(=O)c2ccccc2)C1=O (centres undefined) | 5.86 | 7.19 | 15.2 |  | 39.9 | > 100 | 27.1 | 0.721 | 7.76 | 1.38 | 16.7 | 0.337 | 2.39 |  | 0.716 | 14.2 | 1.28 | 0.496 | 0.99 | 1.99
COc1ccc(Nc2c3c4c(cccc4[nH]c2=O)C(=O)c2ccccc2-3)cc1 | 0.0482 | > 100 | 0.0446 | < 0.0275 | > 100 |  | > 56.3 | 0.0227 | 0.0526 | 38.4 | > 100 | 0.0544 | 0.0191 | < 0.0174 | 0.0451 |  | 0.0271 |  | 0.0221 | 0.0492
